Assay results taken from US11827628B2, “Compositions and methods for inhibition of the JAK pathway” (Rigel Pharmaceuticals, Inc., priority 2005, dated 2023).

Assays:
[1] = system: up-regulation of ICAM-1 (CD54) by IFNγ in A549 lung epithelial cells; test: A549 Epithelial Line Stimulated with IFNγ (ICAM-1 surface expression, FACS); type: cell-based, human; conditions: A549 epithelial line stimulated with IFNγ; ICAM-1 expression by FACS; read-out: IC50, Example 43
How it was run: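 A549 cells pre-incubated 1 h with compound (30 μM to 14 nM, 5% FBS, 0.3% DMSO), then stimulated with IFNγ (75 ng/mL) for 24 h. Surface ICAM-1 stained with APC anti-CD54 and read by flow cytometry; geometric mean of live-gated events plotted against concentration for EC50.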

Primary human T-cells = test: Primary Human T-Cell Proliferation Assay Stimulated with IL-2 (CellTiter-Glo); type: cell-based; conditions: primary human T-cell proliferation stimulated with IL-2; read-out: IC50, Example 42
How it was run: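 Peripheral blood T-cells pre-activated with anti-CD3/anti-CD28 and IL-2 were washed free of IL-2, then cultured with compound plus IL-2 for 72 hours at 37° C, duplicate wells. Viability read as ATP by CellTiter-Glo luminescence; IC50 reported.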

Molecule | IC50 [1] | IC50 (Primary human T-cells)
Cc1noc(COc2cccc(Nc3nc(Nc4cccc(S(N)(=O)=O)c4)ncc3F)c2)n1 [Compound I-252, N2-(3-Aminosulfonylphenyl)-5-fluoro-N4-[3-(3-methyl-1,2,4-oxadiazol-5-yl)methyleneoxyphenyl]-2,4-pyrimidinediamine] | 74.2 µM | 0.558 µM
Cc1cc(Nc2nc(Nc3ccc(S(N)(=O)=O)cc3)ncc2F)cc(C)c1OCC#N [Compound I-25, N2-(4-Aminosulfonyl)phenyl-N4-(4-cyanomethoxy-3,5-dimethyl)phenyl-5-fluoro-2,4-pyrimidinediamine] | 25.3 µM | 1.61 µM
CCN(CC)CCNS(=O)(=O)c1ccc(Nc2ncc(F)c(Nc3ccc(OCc4cc(C)on4)c(C)c3)n2)cc1 [Compound I-245, N2-[4-(2-N,N-Diethylaminoethyl)aminosulfonylphenyl)-5-fluoro-N4-[3-methyl-4-(5-methylisoxazol-3-yl)methyleneoxyphenyl]-2,4-pyrimidinediamine] | 16.7 µM | 1.74 µM
Cc1noc(COc2ccc(Nc3nc(Nc4ccc(C)c(S(N)(=O)=O)c4)ncc3F)cc2)n1 [Compound I-259, N2-(3-Aminosulfonyl-4-methylphenyl)-5-fluoro-N4-[4-(3-methyl-1,2,4-oxadiazol-5-yl)methyleneoxyphenyl]-2,4-pyrimidinediamine] | 7.51 µM | 0.0658 µM
Cc1cc(COc2ccc(Nc3nc(Nc4cc(C)c(Cl)c(S(N)(=O)=O)c4)ncc3F)cc2)no1 [Compound I-218, N2-(3-Aminosulfonyl-4-chloro-5-methylphenyl)-5-fluoro-N4-[4-(5-methylisoxazol-3-yl)methyleneoxyphenyl]-2,4-pyrimidinediamine] | 3.27 µM | 0.116 µM
CCN(CC)CCNS(=O)(=O)c1cccc(Nc2ncc(F)c(Nc3ccc(OCc4cc(C)on4)c(C)c3)n2)c1 [Compound I-244, N2-[3-(2-N,N-Diethylaminoethyl)aminosulfonylphenyl)-5-fluoro-N4-[3-methyl-4-(5-methylisoxazol-3-yl)methyleneoxyphenyl]-2,4-pyrimidinediamine] | 14.7 µM | 1.41 µM
CCN(CC)CCNS(=O)(=O)c1ccc(Nc2ncc(F)c(Nc3ccc(OCc4cc(C)on4)cc3)n2)cc1 [Compound I-246, N2-[4-(2-N,N-Diethylaminoethyl)aminosulfonylphenyl)-5-fluoro-N4-[4-(5-methylisoxazol-3-yl)methyleneoxyphenyl]-2,4-pyrimidinediamine] | 8.88 µM | 0.182 µM
Cc1noc(COc2ccc(Nc3nc(Nc4cc(C)c(Cl)c(S(N)(=O)=O)c4)ncc3F)cc2)n1 [Compound I-265, N2-(3-Aminosulfonyl-4-chloro-5-methylphenyl)-5-fluoro-N4-[4-(3-methyl-1,2,4-oxadiazol-5-yl)methyleneoxyphenyl]-2,4-pyrimidinediamine] | 4.08 µM | 0.0397 µM
Cc1cc(COc2ccc(Nc3nc(Nc4ccc(C)c(S(N)(=O)=O)c4)ncc3F)cc2C)no1 [Compound I-234, N2-(3-Aminosulfonyl-4-methylphenyl)-5-fluoro-N4-[3-methyl-4-(5-methylisoxazol-3-yl)methyleneoxyphenyl]-2,4-pyrimidinediamine] | 8.16 µM | 1.01 µM
Cc1ccc(Nc2ncc(C)c(Nc3ccc(CCC#N)cc3)n2)cc1S(N)(=O)=O [III-11] | 2.24 µM | 0.046 µM
Cc1ccc(Nc2ncc(F)c(Nc3ccc(CC#N)cc3)n2)cc1S(N)(=O)=O [III-7, N2-(3-Aminosulfonyl-4-methyl)phenyl-N4-(4-cyanomethyl)phenyl-5-fluoro-2,4-pyrimidinediamine] | 12.3 µM | 0.195 µM
Cc1ccc(Nc2ncc(F)c(Nc3ccc(OCC#N)cc3)n2)cc1S(N)(=O)=O [Compound I-20, N2-(3-Aminosulfonyl-4-methyl)phenyl-N4-(4-cyanomethoxy)phenyl-5-fluoro-2,4-pyrimidinediamine] | 6.54 µM | 0.0662 µM
CN1CCN(S(=O)(=O)c2cccc(Nc3ncc(F)c(Nc4ccc(OCC#N)cc4)n3)c2)CC1 [Compound I-19, N4-(4-Cyanomethoxy)phenyl-5-fluoro-N2-[3-(4-methylpiperazin-1-yl)sulfonyl]phenyl-2,4-pyrimidinediamine] | 24.9 µM | 1.04 µM
Cc1noc(COc2ccc(Nc3nc(Nc4cccc(S(=O)(=O)NCc5oc(=O)oc5C)c4)ncc3F)cc2)n1 [Compound I-257, N2-{3-[(N-5-Methyl-1,3-dioxolene-2-one-4-yl)methylene]aminosulfonylphenyl}-5-fluoro-N4-[4-(3-methyl-1,2,4-oxadiazol-5-yl)methyleneoxyphenyl]-2,4-pyrimidinediamine] | 3.08 µM | 0.102 µM
5-Fluoro-N4-[4-(3-methyl-1,2,4-oxadiazol-3-yl)methyleneoxyphenyl]-N2-[(3-N-propanamido)sulfonylphenyl)]-2,4-pyrimidinediamine [Compound I-262] | 3.68 µM | 0.164 µM
COc1cc(Nc2ncc(F)c(Nc3ccc(CC#N)cc3)n2)ccc1S(N)(=O)=O [III-9, N2-(4-Aminosulfonyl-3-methoxy)phenyl-N4-(4-cyanomethyl)phenyl-5-fluoro-2,4-pyrimidinediamine] | 23.6 µM | 1.8 µM
Cc1nnc(COc2ccc(Nc3nc(Nc4ccc(F)c(S(N)(=O)=O)c4)ncc3F)cc2)o1 [Compound I-278, N2-(3-Aminosulfonyl-4-fluorophenyl)-5-fluoro-N4-[4-(5-methyl-1,3,4-oxadiazol-2-yl)methyleneoxyphenyl]-2,4-pyrimidinediamine] | 11 µM | 0.412 µM
N#CCc1ccc(Nc2nc(Nc3cccc(S(N)(=O)=O)c3)ncc2F)cc1 [III-4, N2-(3-Aminosulfonyl)phenyl-N4-(4-cyanomethyl)phenyl-5-fluoro-2,4-pyrimidinediamine] | 8.37 µM | 0.171 µM
Cc1cc(COc2ccc(Nc3nc(Nc4cc(C)c(F)c(S(N)(=O)=O)c4)ncc3F)cc2F)no1 [Compound I-224, N2-(3-Aminosulfonyl-4-fluoro-5-methylphenyl)-5-fluoro-N4-[3-fluoro-4-(5-methylisoxazol-3-yl)methyleneoxyphenyl]-2,4-pyrimidinediamine] | 11.3 µM | 0.194 µM
Cc1cc(COc2ccc(Nc3nc(Nc4ccc(C)c(S(N)(=O)=O)c4)ncc3F)cc2)no1 [Compound I-219, N2-(3-Aminosulfonyl-4-methylphenyl)-5-fluoro-N4-[4-(5-methylisoxazol-3-yl)methyleneoxyphenyl]-2,4-pyrimidinediamine] | 7.16 µM | 0.123 µM
COc1cc(Nc2ncc(F)c(Nc3cc(C)c(OCC#N)c(C)c3)n2)ccc1S(N)(=O)=O [Compound I-32, N2-(4-Aminosulfonyl-3-methoxy)phenyl-N4-(4-cyanomethoxy-3,5-dimethyl)phenyl-5-fluoro-2,4-pyrimidinediamine] | 5.5 µM | 2.78 µM
Cc1cc(Nc2nc(Nc3ccc(S(N)(=O)=O)cc3)ncc2F)ccc1OCC#N [Compound I-22, N2-(4-Aminosulfonyl)phenyl-N4-(4-cyanomethoxy-3-methyl)phenyl-5-fluoro-2,4-pyrimidinediamine] | 14.4 µM | 0.944 µM
Cc1cc(COc2ccc(Nc3nc(Nc4cc(C)c(F)c(S(N)(=O)=O)c4)ncc3F)cc2)no1 [Compound I-217, N2-(3-Aminosulfonyl-4-fluoro-5-methylphenyl)-5-fluoro-N4-[4-(5-methylisoxazol-3-yl)methyleneoxyphenyl]-2,4-pyrimidinediamine] | 36.6 µM | 0.217 µM
NS(=O)(=O)c1cccc(Nc2ncc(F)c(Nc3cccc(CNC(=O)C4CC4)c3)n2)c1 [III-39, N2-(3-aminosulfonyl)phenyl-N4-(3-cyclopropylcarbonylaminomethyl)phenyl-5-fluoro-2,4-pyrimidinediamine] | 4.15 µM | 0.13 µM
N2-[3-Aminosulfonyl-4-(4-methylpiperazin-1-yl)phenyl]-5-fluoro-N4-[2-fluoro-4-(5-methylisoxazol-3-yl)methyleneoxyphenyl]-2,4-pyrimidinediamine [Compound I-251] | 34.9 µM | 0.155 µM
Cc1cc(Nc2nc(Nc3cccc(S(N)(=O)=O)c3)ncc2F)cc(C)c1OCC#N [Compound I-26, N2-(3-Aminosulfonyl)phenyl-N4-(4-cyanomethoxy-3,5-dimethyl)phenyl-5-fluoro-2,4-pyrimidinediamine] | 4.23 µM | 0.401 µM
CNS(=O)(=O)c1cc(Nc2ncc(F)c(Nc3cccc(OCc4nc(C)no4)c3)n2)ccc1C [Compound I-255, 5-Fluoro-N2-[3-(N-methylaminosulfony)-4-methylphenyl]-N4-[3-(3-methyl-1,2,4-oxadiazol-5-yl)methyleneoxyphenyl]-2,4-pyrimidinediamine] | 39.3 µM | 2.86 µM
Cc1ccc(Nc2ncc(F)c(Nc3ccc(CCC#N)cc3)n2)cc1S(N)(=O)=O [III-15, N2-(3-Aminosulfonyl-4-methylphenyl)-N4-[4-(cyanoethylene)phenyl]-5-fluoro-2,4-pyrimidinediamine] | 4.66 µM | 0.107 µM
Cc1noc(COc2cccc(Nc3nc(Nc4ccc(C)c(S(N)(=O)=O)c4)ncc3F)c2)n1 [Compound I-254, N2-(3-Aminosulfonyl-4-methylphenyl)-5-fluoro-N4-[3-(3-methyl-1,2,4-oxadiazol-5-yl)methyleneoxyphenyl]-2,4-pyrimidinediamine] | 8.96 µM | 1.91 µM
